pEC50: −log10 of the molar value.
Tests used:
[1] = test system: Cav3.2 (α1H); experiment: Cav3.2 channel currents in HEK293 cells coexpressing NmbR; format: cell-based, human
Experimental: Standard whole-cell recordings were made at room temperature (22-23 °C) as described previously, [25]. Recording electrodes were pulled from borosilicate glass microcapillary tubes (Sutter Instruments) and had resistances from 3 to 5 MΩ when filled with internal solution. Recordings were obtained using a MultiClamp 700B amplifier (Axon Instruments). Data were digitized on a personal computer using a Digidata 1440 interface under the control of the pClamp10.2 acquisition package (Molecular Devices). Data were acquired at 20 kHz with a low-pass Bessel filter at 2-5 kHz. Series resistance was compensated to 80%. The internal solution used for T-type channel current recordings contained 110 mM CsCl, 4 mM Mg-ATP, 0.3 mM Na2-GTP, 25 mM HEPES, and 10 mM EGTA, adjusted to pH 7.4 with CsOH; 295 mOsm. The external solution used for T-type channel current recordings contained 5 mM BaCl2, 140 mM TEA-Cl, 10 mM HEPES, 0.5 mM MgCl2, 5 mM CsCl, and 5.5 mM glucose, adjusted to pH 7.35 with TEA-OH; 305 mOsm. In experiments for Kv current recordings, the extracellular solution contained 140 mM choline-Cl, 1 mM MgCl2, 0.03 mM CaCl2, 5 mM KCl, 10 mM HEPES, and 10 mM glucose, adjusted to pH 7.4 with KOH; 310 mOsm. The intracellular pipette solution contained 140 mM KCl, 1 mM MgCl2, 0.5 mM CaCl2, 3 mM Mg-ATP, 0.3 mM Na2-GTP, 10 mM HEPES, and 5 mM EGTA, adjusted to pH 7.4 with KOH; 295 mOsm.

[2] = test system: small TG neurons; experiment: TG neuronal excitability (action potential firing, rheobase, threshold); format: cell-based, mouse
Experimental: All the procedures performed in this study were carried out in accordance with NIH guidelines and were approved by the Institutional Animal Care and Use Committee of Soochow University. TG neurons were dissociated as previously described, [23]. Briefly, TGs were harvested from 8- to 10-week-old ICR mice of either sex, cut into small pieces and treated with 2 mg/mL collagenase D (Roche) for 20 min followed by 1.5 mg/mL trypsin (Sigma) at 37 °C for 15 min. Cells were dissociated via gentle trituration with fire-polished sterilized Pasteur pipettes and centrifuged through a 15% BSA gradient to remove debris and nonneuronal cells. TG neurons were resuspended in neurobasal A (Thermo Fisher) supplemented with B27 (Thermo Fisher) and transferred onto Matrigel-coated coverslips. Patch clamp recordings were conducted 2 to 6 h after plating. In shRNA-treated knockdown experiments, TG cells were replated onto coverslips 48 h after infection.
Standard whole-cell recordings were made at room temperature (22-23 °C) as described previously, [25]. Recording electrodes were pulled from borosilicate glass microcapillary tubes (Sutter Instruments) and had resistances from 3 to 5 MΩ when filled with internal solution. Recordings were obtained using a MultiClamp 700B amplifier (Axon Instruments). Data were digitized on a personal computer using a Digidata 1440 interface under the control of the pClamp10.2 acquisition package (Molecular Devices). Data were acquired at 20 kHz with a low-pass Bessel filter at 2-5 kHz. Series resistance was compensated to 80%. The internal solution used for T-type channel current recordings contained 110 mM CsCl, 4 mM Mg-ATP, 0.3 mM Na2-GTP, 25 mM HEPES, and 10 mM EGTA, adjusted to pH 7.4 with CsOH; 295 mOsm. The external solution used for T-type channel current recordings contained 5 mM BaCl2, 140 mM TEA-Cl, 10 mM HEPES, 0.5 mM MgCl2, 5 mM CsCl, and 5.5 mM glucose, adjusted to pH 7.35 with TEA-OH; 305 mOsm. In experiments for Kv current recordings, the extracellular solution contained 140 mM choline-Cl, 1 mM MgCl2, 0.03 mM CaCl2, 5 mM KCl, 10 mM HEPES, and 10 mM glucose, adjusted to pH 7.4 with KOH; 310 mOsm. The intracellular pipette solution contained 140 mM KCl, 1 mM MgCl2, 0.5 mM CaCl2, 3 mM Mg-ATP, 0.3 mM Na2-GTP, 10 mM HEPES, and 5 mM EGTA, adjusted to pH 7.4 with KOH; 295 mOsm. The two kinetically distinct Kv currents in small TG neurons were separated by the two-step voltage protocol as previously described, [26]. The external solution for Nav current clamp recordings contained 2 mM KCl, 2 mM MgCl2, 25 mM HEPES, 2 mM CaCl2, 128 mM NaCl, and 30 mM glucose, adjusted to pH 7.4 with NaOH; 305 mOsm. The internal solution contained 10 mM NaCl, 110 mM KCl, 4 mM Mg-ATP, 0.3 mM Na2-GTP, 25 mM HEPES, and 2 mM EGTA, adjusted to pH 7.3 with KOH; 295 mOsm. Nmb was applied to a patched cell by an air-pressure microinjector (Pneumatic PicoPump, model PV830, WPI).
We next determined the role of the Nmb-induced T-type channel response in regulating TG neuronal excitability. […] Furthermore, application of Nmb (100 nM) to TG neurons decreased the peak amplitude of the transient outward K^+ channel currents (A-type currents or IA) (decrease of 22.3 ± 3.9%; Figure 6C), while the sustained delayed rectifier K^+ channel currents (IDR) remained unaffected (decrease of 1.9 ± 1.6%; Figure 6C). […] To further test this hypothesis, a shorter (1 ms) current injection was applied to avoid contaminating the action potential waveform with the stimulus. Neurons were manually hyperpolarized to membrane potentials of -75 mV to maximize the number of T-type channels available for activation. With increasingly stronger current injections (+200 pA), the threshold current necessary to evoke an overshooting AP was determined for each neuron in the presence or absence of Nmb.

[3] = test system: T-type channels in small TG neurons; experiment: Whole-cell patch clamp of T-type channel currents (IT) in small TG neurons; format: cell-based, mouse
[4] = test system: nociceptive reflex; conditions: intrathecal injection; ref [4], [5]; cited from earlier work
Source text: Neuromedin B (Nmb) is a highly conserved and non-glycosylated polypeptide in mammals initially purified from porcine spinal cord that serves as a neuromodulator by paracrine or autocrine mechanisms. Nmb receptor (NmbR), which is located predominantly (but not exclusively) in peripheral tissues and organs and the central nervous system in mammals, has been identified as an endogenous receptor for Nmb. Acting through this receptor, Nmb mediates several behavioural effects and performs various biological functions, including regulating food intake, smooth muscle contraction, body temperat ...

[5] = test system: phosphorylated AMPK (p-AMPK); experiment: Western blot of phosphorylated AMPK in TG cells; format: cell-based, mouse; conditions: Nmb exposure (100 nM) in TG cells

CCCCCCOC(=O)[C@]1(O)C[C@@H]2O[C@@]1(C)n1c3ccccc3c3c4c(c5c6ccccc6n2c5c31)C(=O)NC4 [KT-5720]
Nmb-induced increase of Cav3.2 currents after KT-5720 ([1]; pretreatment 1 µM KT-5720, 100 nM Nmb, n = 9): 1.9 ± 4.2%
effect on Nmb-mediated increase in AP firing rate / hyperexcitability ([2]; pretreatment KT-5720 1 µM (n = 12) or NiCl2 50 μM (n = 11), 100 nM Nmb): blocked
effect on forskolin-induced IT increase ([3]; 1 µM KT-5720 pretreatment, 10 μM forskolin, n = 6): abrogated
Nmb-induced increase in IT after KT-5720 ([3]; pretreatment 1 µM KT-5720, 100 nM Nmb, n = 7): 2.8 ± 2.9%

Neuromedin B [Nmb]
increase of Cav3.2 channel currents ([1]; 100 nM Nmb, -110 mV to -30 mV, n = 9): 36.2 ± 3.1%
pEC50 ([1]; sigmoidal dose-response fit, read-out: EC50 for increase of Cav3.2 channel currents): 7.32
threshold current with Nmb ([2]; 100 nM (control +0.98 nA)): +0.79 nA
increase of action potential firing rate ([2]; 100 nM, 5 mM 4-AP and 5 μM nifedipine, 1-s current injection, n = 17): 43.7 ± 3.7%
cells in which the threshold was significantly lowered ([2]; 100 nM, 1 ms current injection, -75 mV): 15 of 19
resting membrane potential ([2]; 100 nM, n = 17): not significantly changed
rheobase (vs nontreated) ([2]; 100 nM, n = 17): significantly lower
nociceptive reflex responses [4]: elicits nociceptive reflex responses
reversal of IT increase when Nmb removed by washing ([3]; 100 nM, washout): partially reversed
increase of peak amplitude of IT by Nmb ([3]; 100 nM, mean ± SEM, n = 9): 34.2 ± 1.9%
current-voltage relationship curve of IT ([3]; 100 nM, n = 8): downward shifted the current-voltage relationship curve
depolarizing shift in steady-state inactivation ([3]; 100 nM, n = 9): ~ 7.3 mV
shift in activation properties ([3]; 100 nM, n = 9): no significant shifts in activation properties
pEC50 ([3]; sigmoidal Hill equation fit, small TG neurons, read-out: EC50 for IT increase): 7.34
Vhalf of activation ([3]; with 100 nM Nmb (control -47.1 ± 1.9 mV), n = 9): -46.3 ± 2.2 mV
Vhalf of steady-state inactivation ([3]; with 100 nM Nmb (control -80.1 ± 2.5 mV), n = 9): -72.8 ± 1.3 mV
level of phosphorylated AMPK [5]: markedly increased
